For the assay, the system named is iNKT. Description: Induction of cellular expansion in human iNKT cells at 250 nM after 8 days. The class given is functional.
In turn, `CCCCC/C=C\C/C=C\CCCCCCCCCC(=O)N[C@@H](CO[C@H]1O[C@H](CO)[C@@H](O)[C@H](O)[C@H]1O)[C@H](O)[C@H](O)CCCCCCCCCCCCCC` had an Activity of 33%. Then `CCCCC/C=C\C/C=C\CCCCCCCCCC(=O)N[C@@H](CO[C@H]1O[C@H](CO)[C@H](O)[C@H](O)[C@H]1O)[C@H](O)[C@H](O)CCCCCCCCCCCCCC`, with 37%; and `CCCCCCCCCCCCCCCCCCCCCCCCCC(=O)N[C@@H](CO[C@H]1O[C@H](CO)[C@H](O)[C@H](O)[C@H]1O)[C@H](O)[C@H](O)CCCCCCCCCCCCCC` [RGI-7000], with 34%.

(Values after ChEMBL document CHEMBL1158633, “Synthesis and biological activity of alpha-glucosyl C24:0 and C20:2 ceramides” (2010).)
